From US20250026747A1, “COLIBACTIN DERIVATIVES AND METHODS OF TREATING, AMELIORATING, AND/OR PREVENTING CANCER” (priority 2021, published 2025)

Experiments:
[1] = system: linearized pUC19 DNA; assay: DNA cross-linking assay with linearized pUC19 DNA, denaturing agarose gel electrophoresis; assay type: biochemical; settings: linearized pUC19 DNA, pH 7.0, 1 nM-100 μM
Experimental: FIGS. 6A-6C depict the DNA crosslinking ability of several compounds according to some embodiments. The DNA cross-linking assays employ linear pUC19 DNA. DMSO was used as vehicle (negative control), and 100 μM cisplatin was used as positive controls. The DNA was analyzed by 0.4% NaOH denaturing and agarose gel electrophoresis (90 V, 1.5 h). FIG. 6A depicts the DNA cross-linking comparison of colibactin 770 (3a), stable colibactin 742 (4), and its linear precursor 9 at pH 5.0. FIG. 6B depicts the comparison of the relative DNA cross-linking abilities of colibactin 742 (4) and its linear precursor 9 at pH 5.0. FIG. 6C depicts the comparison of the relative DNA cross-linking abilities of colibactin 742 (4) and its linear precursor 9 at pH 7.0.
FIG. 10 depicts the DNA cross-linking assay employing linear pUC19 DNA and synthetic colibactin (3), 9, and colibactin 742 (4) according to some embodiments. Specifically, 5% DMSO was used as vehicle (negative control), and 100 μM cisplatin was used as positive control. DNA ladder (Lane #1); 5% DMSO (Lane #2); 100 μM cisplatin (Lane #3); 200 μM colibactin (3) (Lane #4); 100 μM colibactin (3) (Lane #5); 10 μM colibactin (3) (Lane #6); 1 μM colibactin (3) (Lane #7); 200 μM 9 (Lane #8); 100 μM 9 (Lane #9); 10 μM 9 (Lane #10); 1 μM 9 (Lane #11); 200 μM colibactin 742 (4) (Lane #12); 100 μM colibactin 742 (4) (Lane #13); 10 μM colibactin 742 (4) (Lane #14); 1 μM colibactin 742 (4) (Lane #15). Conditions (Lane #3): linearized pUC19 DNA (15.4 μM in base pairs), 5% DMSO (vehicle), 100 μM cisplatin, 10 mM citric buffer, pH 5.0, 4 h, 37° C. Conditions (Lanes #4-#7): linearized pUC19 DNA (15.4 μM in base pairs), colibactin (3) (200 μM-1 μM), 5% DMSO, 10 mM citric buffer, pH 5.0, 4 h, 37° C. Conditions (Lanes #8-#11): linearized pUC19 DNA (15.4 μM in base pairs), 9 (200 μM-1 μM), 5% DMSO, 10 mM citric buffer, pH 5.0, 4 h, 37° C. Conditions (Lanes #12-#15): linearized pUC19 DNA (15.4 μM in base pairs), colibactin 742 (4) (200 μM-1 μM), 5% DMSO, 10 mM citric buffer, pH 5.0, 4 h, 37° C. The DNA was analyzed by native, 0.2% NaOH, 0.4% NaOH, and 1% NaOH denaturing agarose gel electrophoresis (90 V, 1.5 h). Linear=linearized DNA in native form, linear-denat.=linearized DNA in denaturing form, linear-XL=linerized DNA cross-linked by colibactins or cisplatin.
FIG. 11 depicts the DNA cross-linking assay employing linear pUC19 DNA and synthetic colibactin fragments 23, 24, and 22. Specifically, 5% DMSO was used as vehicle (negative control), and 100 μM cisplatin was used as positive control. DNA ladder (Lane #1); 5% DMSO (Lane #2); 100 μM cisplatin (Lane #3); 500 μM 23 (Lane #4); 100 μM 23 (Lane #5); 10 μM 23 (Lane #6); 1 μM 23 (Lane #7); 100 nm 23 (Lane #8); 500 μM 24 (Lane #9); 100 μM 24 (Lane #10); 10 μM 24 (Lane #11); 1 μM 24 (Lane #12); 100 nm 24 (Lane #13); 500 μM 22 (Lane #14); 100 μM 22 (Lane #15); 10 μM 22 (Lane #16); 1 μM 22 (Lane #17); 100 nm 22 (Lane #18). Conditions (Lane #2): linearized pUC19 DNA (15.4 μM in base pairs), 5% DMSO (vehicle), 10 mM citric buffer, pH 5.0, 4 h, 37° C. Conditions (Lane #3): linearized pUC19 DNA (15.4 μM in base pairs), 5% DMSO (vehicle), 100 μM cisplatin, 10 mM citric buffer, pH 5.0, 4 h, 37° C. Conditions (Lanes #4-#8): linearized pUC19 DNA (15.4 μM in base pairs), 23 (500 μM-100 nM), 5% DMSO, 10 mM citric buffer, pH 5.0, 4 h, 37° C. Conditions (Lanes #9-#13): linearized pUC19 DNA (15.4 μM in base pairs), 24 (500 μM-1 μM), 5% DMSO, 10 mM citric buffer, pH 5.0, 4 h, 37° C. Conditions (Lanes #14-#18): linearized pUC19 DNA (15.4 μM in base pairs), 22 (500 μM-100 nM), 5% DMSO, 10 mM citric buffer, pH 5.0, 4 h, 37° C. The DNA was analyzed by native, 0.2% NaOH, 0.4% NaOH, and 1% NaOH denaturing agarose gel electrophoresis (90 V, 1.5 h). Linear=linearized DNA in native form, linear-denat.=linearized DNA in denaturing form, linear-XL=DSB/linerized DNA cross-linked by colibactins or cisplatin. […]

[2] = Stability of colibactin 770 in aqueous buffer (LC-MS time course); assay type: physicochemical
Experimental: FIG. 9 depicts the percentage of colibactin 770 (M+Na) over time at pH 7.4, 37° C. according to some embodiments. Specifically, the linear precursor to colibactin 770 (nominally 404 nmol), prepared according to Xu et al. (Science 2019, 365) was dissolved in DMSO (100 μL) and the resulting solution was diluted with PBS buffer (400 μL) at 22° C. This solution was immediately warmed to 37° C. in a preheated water bath. Aliquots (15 μL) were taken at 0 min, 5 min, 10 min, 15 min, 30 min, 60 min, 120 min, 180 min, 240 min, 300 min, and 480 min. Each aliquot was dissolved in acetonitrile (150 μL) and then immediately frozen in liquid nitrogen. The frozen aliquots were stored at −78° C. until the time course was complete. Aliquots were quickly thawed and analyzed using a Shimadzu Scientific Instruments QToF 9030 LC-MS system, equipped with a Nexera LC-40D xs UHPLC, consisting of a CBM-40 Lite system controller, a DGU-405 Degasser Unit, two LC-40D XS UHPLC pumps, a SIL-40C XS autosampler and a Column Oven CTO-40S. UV data was collected with a Shimadzu Nexera HPLC/UHPLC Photodiode Array Detector SPD M-40 in the range of 190-800 nm. Mass spectra were recorded with the quadrupole time-of-flight (QToF) 9030 mass spectrometer. The samples were held at 4° C. in the autosampler compartment. […]

[3] = system: eukaryotic cells; assay: Genotoxicity of synthetic colibactin 770 in eukaryotic cells; assay type: cell-based; settings: eukaryotic cells treated with the synthetic compound

## C[C@H]1CCC(C2=C(CC(=O)NCC(=O)c3csc(C(=O)C(=O)c4csc(CNC(=O)CC5=C(C6=N[C@@H](C)CC6)C(=O)NC56CC6)n4)n3)C3(CC3)NC2=O)=N1 [colibactin 770 (3a)]
[1]
  DNA interstrand cross-link (ICL) formation: fails to produce detectable levels of ICLs
[2]; pH 7.0
  stability at pH 7.0: readily decomposes
[2]; pH 7.4, 37° C.
  time to degradation in aqueous buffer: ≤ 2 h
[3]
  genotoxicity: no genotoxicity was observed
